# Legend:
# Assay in all cases: biochemical
# PstS2 = target: T1, PstS2 (Parasynechococcus marenigrum, UniProt Q7U3C5)
# T1 construct: gene SYNW2507
# T1 sequence (Q7U3C5 24-336): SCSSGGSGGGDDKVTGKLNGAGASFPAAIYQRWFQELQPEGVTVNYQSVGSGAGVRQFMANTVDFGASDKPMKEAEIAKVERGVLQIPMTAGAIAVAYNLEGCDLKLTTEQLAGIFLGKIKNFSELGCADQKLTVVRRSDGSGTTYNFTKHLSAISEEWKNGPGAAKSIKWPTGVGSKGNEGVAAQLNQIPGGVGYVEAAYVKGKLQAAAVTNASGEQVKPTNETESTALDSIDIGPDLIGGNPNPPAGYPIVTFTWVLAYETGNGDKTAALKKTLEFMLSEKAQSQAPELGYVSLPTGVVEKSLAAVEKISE
# PstS1a = target: T2, PstS1a (Parasynechococcus marenigrum, UniProt Q7U7G6)
# T2 construct: gene SYNW1018
# T2 sequence (Q7U7G6 25-324): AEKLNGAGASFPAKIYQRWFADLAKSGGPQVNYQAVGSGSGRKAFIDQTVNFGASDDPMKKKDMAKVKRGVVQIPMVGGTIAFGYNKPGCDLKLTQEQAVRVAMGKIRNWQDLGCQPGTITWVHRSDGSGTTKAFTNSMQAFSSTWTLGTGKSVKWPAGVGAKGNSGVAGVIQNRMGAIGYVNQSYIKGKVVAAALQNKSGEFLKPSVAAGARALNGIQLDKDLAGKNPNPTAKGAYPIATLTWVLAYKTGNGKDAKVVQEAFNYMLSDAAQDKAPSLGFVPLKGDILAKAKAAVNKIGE
# PstS1b = target: T3, PstS1b (Parasynechococcus marenigrum, UniProt Q7U592)
# T3 construct: gene SYNW1815
# T3 sequence (Q7U592 26-325): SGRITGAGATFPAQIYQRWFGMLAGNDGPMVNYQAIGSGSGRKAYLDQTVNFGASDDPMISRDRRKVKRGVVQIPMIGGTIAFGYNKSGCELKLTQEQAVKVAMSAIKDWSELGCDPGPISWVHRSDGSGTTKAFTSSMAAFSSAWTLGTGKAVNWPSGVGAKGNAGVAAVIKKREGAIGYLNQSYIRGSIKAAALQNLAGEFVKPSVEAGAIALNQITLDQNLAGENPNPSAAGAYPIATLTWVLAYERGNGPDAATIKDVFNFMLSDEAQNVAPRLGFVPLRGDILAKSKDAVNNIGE
structure (smiles),measurement,setting,value
O=P(O)(O)O [phosphate],Kd,PstS2,4.3 µM
same,Kd,PstS1a,3.3 µM
same,Kd,PstS1b,0.44 µM

# Source: publication PMC10846223, “Substrate specificity and ecological significance of PstS homologs in phosphorus uptake in marine Synechococcus sp. WH8102” (Microbiology Spectrum, 2024)
